In assay [1] the test system is NB16 cells. The experiment in a line: U-13C-glutamine isotope tracing (LC/MS). It counts as cell-based. How it is done:
(§1) Metabolic analysis. For the metabolomics and isotope tracing analysis in vitro, cells were washed with cold PBS, lysed in 80% Ultra LC-MS acetonitrile on ice for 15 minutes, centrifuged at 20,000 g for 10 minutes at 4° C., and supernatant was subjected to mass spectrometry analysis. For the metabolomics analysis in vivo, 10-20 mg tissue were cut off on ice, rinsed if necessary to remove blood, and place in a 2 ml round-bottom cryovial. The tissues were homogenized by 3 times 10 s on/off bursts homogenization in 1 ml 80% methanol on dry ice. Transfer the homogenate to an Eppendorf tube and keep on liquid nitrogen while processing the remaining samples. Incubated all the samples in −80° C. for 30 minutes. After incubation, vortexed the samples for 5 seconds. Then centrifuged the samples at 20,000 g for 10 minutes at 4° C., and supernatant was subjected to mass spectrometry analysis. Resuspend the remaining cellular pellet in 100 ul protein lysis buffer and determine the protein concentration. Then calculate the total protein content per sample.
(§2) Liquid chromatography was performed using an Agilent 1290 Infinity LC system (Agilent, Santa Clara, US) coupled to a Q-TOF 6545 mass spectrometer (Agilent, Santa Clara, US). A hydrophilic interaction chromatography method (HILIC) with a BEH amide column (100×2.1 mm i.d., 1.7 μm; Waters) was used for compound separation at 35° C. with a flow rate of 0.3 ml/minutes. The mobile phase A consisted of 25 mM ammonium acetate and 25 mM ammonium hydroxide in water and mobile phase B was acetonitrile. The gradient elution was 0-1 minute, 85% B; 1-12 minutes, 85% B→65% B; 12-12.2 minutes, 65% B→40% B; 12.2-15 minutes, 40% B. After the gradient, the column was re-equilibrated at 85% B for 5 minutes. The overall runtime was 20 minutes, and the injection volume was 5 μL. Agilent Q-TOF was operated in negative mode and the relevant parameters were as listed: ion spray voltage, 3500 V; nozzle voltage, 1000 V; fragmentor voltage, 125 V; drying gas flow, 11 L/minutes; capillary temperature, 325° C., drying gas temperature, 350° C.; and nebulizer pressure, 40 psi. A full scan range was set at 50 to 1600 (m/z). The reference mass was 119.0363 and 980.0164. The acquisition rate was 2 spectra/s. Targeted analysis, isotopologues extraction and natural isotope abundance correction were performed by Agilent Profinder B.10.00 (Agilent Technologies).
(§3) Stable isotope tracing analysis. […] Then the culture medium was changed to DMEM/F-12, no glutamine (Gibco, 21331020) with 4 mM U-^13C5-glutamine (Cambridge Isotope Laboratories, CLM-1822-H) and 10% dialyzed FBS (Gibco, 26400044) under same treatment condition as above for 2 h. […] Then changed the medium to DMEM/F-12, no glutamine (Gibco, 21331020) with 4 mM 1-^13C-glutamine (Cambridge Isotope Laboratories, CLM-CLM-3612-PK) and 10% dialyzed FBS (Gibco, 26400044) for 2 h with same treatment under normoxia or hypoxia for 2 h.

Assay [2] has as its system SK-N-BE(2) cells. Nature of the assay: U-13C-glutamine isotope tracing (LC/MS). It counts as cell-based. As for the experimental part: as §1, §2, §3
Assay [3] relates to SK-N-BE(2) cells. Nature of the assay: Infinium Methylation EPIC array, locus-specific DNA methylation. Type of assay: cell-based. As for the experimental part:
DNA microarray analysis. DNA extraction was carried out with samples were extracted by using PureLink™ Genomic DNA Mini Kit (Gibco, K182001), according to the protocol provided by the supplier. The DNA was quantified with the Nanodrop and 3 ug was used for bisulfite modification using the EZ DNA methylation kit (D5001, Zymo Research, Orange, CA) according to the protocol provided with the modification step according to the recommendations for array processing of the samples. Control PCR reactions were carried out before array analysis to confirm successful modification of the DNA. The bisulfite-modified DNA (500 ng) was applied to the Infinium MethylationEPIC array (Illumina). After bisulfite treatment of the DNA samples, the cytosines in the CpG sites were genotyped as C/T polymorphisms according to the manufacturer's protocol. Raw array data was collected with 866 k probes for 8 samples across 4 stages (those are control, 5 hours, 24 hours and 48 hours). The fluorescence signals were measured from the BeadArrays using an Illumina BeadStation GX scanner.
The fluorescence data were then analyzed using the GenomeStudio software (Illumina). The software assigns a score called a “b value” to each CpG site, which corresponds to the ratio between the fluorescence signal of the methylated allele (C) and the sum of the fluorescent signals of the methylated (C) and unmethylated (T) alleles. The data generated by the BeadStudio software was exported and further analyses were performed in the R programming environment. Then a detection p-value for every probe in every sample, representing the quality of the signal is generated using method minfi. Poor probes with all samples' p-values larger than or equal to 0.01 are removed which results in 864 k probes left. For methylation levels estimations we use M-Values (log 2 based Methylation signal over unmethylation signal) for analysis.
Differential Methylation Probes are identified by first standardizing M-Values with both rows and columns and then enforced certain direction (hypermethylated or hypomethylated) between control versus treatments. The p-values used in the volcano plot is calculated through Fisher' method by combining quality p-value for all samples with each probe.

Assay [4] concerns SK-N-BE(2) cells. The experiment in a line: 1-13C-glutamine tracing of reductive carboxylation under normoxia or hypoxia. Type of assay: cell-based. The note with it: 1 μM NEN. How it is done:
as §1
Liquid chromatography was performed using an Agilent 1290 Infinity LC system (Agilent, Santa Clara, US) coupled to a Q-TOF 6545 mass spectrometer (Agilent, Santa Clara, US). […]

The test system of assay [5] is orthotopic neuroblastoma xenograft (SK-N-BE(2) cells). The experiment in a line: H&E histology and immunohistochemistry of orthotopic tumors. Type of assay: in vivo, mice. The note with it: diet 2000 ppm NEN vs control.
The mark [6] stands for this setting: NB16, 1 μM NEN 3 h pretreatment then 2 h label.
The mark [7] stands for this setting: 1 μM NEN 3 h pretreatment then 2 h label.

Regarding `O=C(Nc1ccc([N+](=O)[O-])cc1Cl)c1cc(Cl)ccc1O` [NEN, 5-chloro-N-(2-chloro-4-nitrophenyl)-2-hydroxybenzamide compound with 2-aminoethanol (1:1)], in assay [1] (setting [6]), the “m+4 aspartate” value is reported as “increased”; the “m+4 succinate” value is reported as “increased”; the “m+5 2-HG labelling” value is listed as “no significant reduction”; the “m+5 and m+3 labeling of α-KG from glutamine” value was “increased”. The “reductive carboxylation flux (labelling fraction of m+5 citrate, m+3 fumarate, m+3 malate)” value in assay [1] (NB16, U-13C-glutamine, 1 μM NEN, normoxia) is “significantly inhibited”. Moreover, in assay [2] (setting [7]), the “labelling abundance of m+2 (2nd cycle) and m+½ (3rd cycle) aspartate” value is “significantly increased”; the “labelling abundance of m+2 (2nd cycle) and m+½ (3rd cycle) succinate” value is on record as “significantly increased”; the “labelling percentage of m+3 (2nd cycle) α-KG” value is on record as “significantly increased”; the “labelling percentage of m+½ (3rd cycle) α-KG” value is given as “significantly increased”. In addition, in assay [2] (setting [7]), the “m+5 labelling abundance of 2-HG” value is recorded as “significantly decreased” and the “m+5 α-KG labelling from U-13C-glutamine” value was “no significant increase”. The “reductive carboxylation flux (labelling fraction of m+5 citrate, m+3 fumarate, m+3 malate)” value in assay [2] (U-13C-glutamine, 1 μM NEN, normoxia) is given as “significantly inhibited”. Also, in assay [3] (1 μM NEN 24 or 48 hours), the “differentially methylated sites close to transcription start sites (TSS200, 1st exon)” value was “more hypomethylated sites than hypermethylated sites”; the “differentially methylated sites in 'shelf' and 'shore' regions (vs CpG islands)” value is reported as “opposite trend”; the “differentially methylated sites in CpG islands” value is recorded as “more hypo-methylated sites than hyper-methylated sites”; the “differentially methylated sites in the gene body and 3′ UTR region” value is given as “more hypermethylated sites than hypomethylated sites”. Also, the “DNA methylation levels of CpG sites in the promoter region of p53 and CTNNBIP1” value in assay [3] (1 μM NEN 24 h) is on record as “upregulated/downregulated”. The “hypoxia-induced reductive carboxylation flux” value in assay [4] (hypoxia (0.5% oxygen)) is on record as “fully repressed”. The “basal reductive carboxylation flux” value in assay [4] (normoxia) was “reduced”. In assay [5], the “N-Myc protein expression in xenografts (IHC)” value is “significantly reduced”, the “enlarged prominent nucleoli in tumor cells (H&E)” value is “much fewer” and the “β-catenin protein expression in xenografts (IHC)” value is on record as “significantly reduced”.
